We go through 17 compounds from ChEMBL document CHEMBL4673401 (ACS Med Chem Lett, 2021).

In series [1] the target is Tryptophan 2,3-dioxygenase (Homo sapiens, UniProt P48775). Put plainly: Inhibition of human TDO expressed in Escherichia coli Rosetta using tryptophan as substrate incubated for 1 hr by methylene blue based assay.
For series [2], the target named is T1, Indoleamine 2,3-dioxygenase 1 (Homo sapiens, UniProt P14902). Put plainly: Inhibition of IDO1 in IFNgamma-stimulated human HeLa cells using L-tryptophan as substrate measured after 48 hrs.
T1 sequence (P14902 whole entry): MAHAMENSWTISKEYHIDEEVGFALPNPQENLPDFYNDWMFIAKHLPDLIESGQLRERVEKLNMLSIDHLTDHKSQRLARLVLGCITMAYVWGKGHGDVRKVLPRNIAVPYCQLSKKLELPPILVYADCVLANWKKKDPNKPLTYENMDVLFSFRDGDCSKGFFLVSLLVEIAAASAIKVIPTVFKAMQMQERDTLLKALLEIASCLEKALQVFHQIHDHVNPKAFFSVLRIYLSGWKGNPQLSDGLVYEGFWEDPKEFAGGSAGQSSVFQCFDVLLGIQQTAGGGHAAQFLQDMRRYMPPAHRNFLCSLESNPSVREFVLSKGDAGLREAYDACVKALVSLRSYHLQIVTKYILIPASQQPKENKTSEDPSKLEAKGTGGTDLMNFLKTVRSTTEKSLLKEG
Series [3] has as its target T1, Indoleamine 2,3-dioxygenase 1. Put plainly: Inhibition of human IDO1 expressed in Escherichia coli Rosetta using tryptophan as substrate incubated for 1 hr by methylene blue based assay.
Series [4] in a line: AUC in Sprague-Dawley rat at 3 mg/kg, po measured up to 24 hrs. Format: ADME, organism-based. More on the design: route oral, dose 3 mg/kg, time <=24. To be noted: in vivo.
Series [5] is described as follows: Cmax in Beagle dog at 2 mg/kg, po measured up to 24 hrs. Format: ADME, organism-based, Canis lupus familiaris. More on the design: route oral, dose 2 mg/kg, time <=24. Conditions: in vivo.
The nature of series [6]: AUC in Beagle dog at 2 mg/kg, po measured up to 24 hrs. Format: ADME, organism-based, Canis lupus familiaris. Set-up: route oral, dose 2 mg/kg, time <=24. Conditions: in vivo.
Series [7] is described as follows: Cmax in Sprague-Dawley rat at 3 mg/kg, po measured up to 24 hrs. The series is classed as ADME, organism-based. More on the design: route oral, dose 3 mg/kg, time <=24. Conditions: in vivo.
Series [8] can be described thus: Half life in Sprague-Dawley rat at 3 mg/kg, po measured up to 24 hrs. The series is classed as ADME, organism-based. Conditions: in vivo.
Series [9] can be described thus: Half life in Beagle dog at 2 mg/kg, po measured up to 24 hrs. The series is classed as ADME, organism-based, Canis lupus familiaris. To be noted: in vivo.

Chain of Tryptophan 2,3-dioxygenase (P48775 whole entry): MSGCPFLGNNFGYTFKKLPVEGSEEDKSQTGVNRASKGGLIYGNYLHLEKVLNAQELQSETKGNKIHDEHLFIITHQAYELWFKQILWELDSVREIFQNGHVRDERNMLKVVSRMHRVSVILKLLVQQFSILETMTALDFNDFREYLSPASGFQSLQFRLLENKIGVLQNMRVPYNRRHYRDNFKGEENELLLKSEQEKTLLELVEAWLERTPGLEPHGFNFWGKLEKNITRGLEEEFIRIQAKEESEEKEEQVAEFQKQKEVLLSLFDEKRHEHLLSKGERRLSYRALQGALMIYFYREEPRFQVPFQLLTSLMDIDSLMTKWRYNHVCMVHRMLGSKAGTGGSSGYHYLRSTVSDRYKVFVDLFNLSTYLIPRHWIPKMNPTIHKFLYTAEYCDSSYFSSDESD

As for `O=C(/C(=N/O)Nc1ccc(F)c(Br)c1)C1CCN(c2ccccc2)CC1`, the IC50 – broadly, the concentration needed to halve the response being measured – in [1] was more than 100000 nM; in [2] it was 1020 nM; in series [3] it was 149 nM.

For the compound `O=C(/C(=N/O)Nc1ccc(F)c(Br)c1)c1ccccc1`, the values for the half-inhibitory concentration (IC50) in series [1], in [2] and in [3] were 80000 nM, 1430 nM and 410 nM, respectively.

Regarding `O=C(NC[C@H]1CC[C@H](C(=O)/C(=N/O)Nc2ccc(F)c(Br)c2)CC1)c1ccccc1`, the IC50 in [1] stood at 81000 nM; in series [2] it was 204 nM; in series [3] it was 80 nM.

Take `O=C(/C(=N/O)Nc1ccc(F)c(Br)c1)C1CCCCC1`: the IC50 is 79300 nM in series [1], 63 nM in [2] and 132 nM in series [3].

For `O=C(/C(=N/O)Nc1ccc(F)c(Br)c1)C1CCN(C(=O)NCc2ccccc2)CC1`, the values for the 50% inhibitory concentration (IC50) in series [1], in series [2] and in [3] were 89800 nM, 28 nM and 43 nM, respectively.

As to `O=C(/C(=N/O)Nc1ccc(F)c(Br)c1)c1cccs1`, the IC50 in series [1] turned out to be 63100 nM; in [2], 272 nM; in series [3] it was 117 nM.

On to `O=C(/C(=N/O)Nc1ccc(F)c(Br)c1)C1CCN(S(=O)(=O)Nc2ccccc2)CC1`, for which the half-inhibitory concentration (IC50) in [1] was found to be 65700 nM; in [2] it was 150 nM; in [3], 98 nM.

With `O=C(/C(=N/O)Nc1ccc(F)c(Br)c1)C1CCN(C(=O)c2ccccc2)CC1`, the IC50 in series [1] was more than 100000 nM; in series [2] it was 281 nM; in [3] it was 106 nM.

Consider `NS(=O)(=O)NC[C@H]1CC[C@H](C(=O)/C(=N/O)Nc2ccc(F)c(Br)c2)CC1`, for which the IC50 in series [1] stood at 58700 nM; in series [2], 21 nM; in [3], 198 nM.

Take `O=C(Nc1ccccc1)[C@H]1CC[C@H](C(=O)/C(=N/O)Nc2ccc(F)c(Br)c2)CC1`: the concentration for half-maximal inhibition (IC50) in [1] was more than 100000 nM; in series [2], 197 nM; in [3] it was 150 nM.

Take `O/N=C(/CC1CCCCC1)Nc1ccc(F)c(Br)c1`: the values for the IC50 in series [1], in series [2] and in series [3] were more than 100000 nM, 578 nM and 497 nM, respectively.

For the compound `O=C(/C(=N/O)Nc1ccc(F)c(Br)c1)c1ccco1`, the IC50 is more than 100000 nM in series [1], 1680 nM in [2] and 467 nM in [3].

Turning to `Cn1cc(-c2ccc(NC(=O)N3CCC(C(=O)/C(=N/O)Nc4ccc(F)c(Br)c4)CC3)cc2)cn1`, the exposure (AUC) (usually the area under the concentration-time curve, a measure of exposure) at 24 h turned out to be 1030 ng·h/mL in series [4] and 255 ng·h/mL in series [6]. Moreover, the Cmax (in general, the highest concentration seen after dosing) in series [5] stood at 140 ng/mL; in [7], 173 ng/mL. The IC50 in [1] was more than 100000 nM; in series [2], 15 nM; in series [3], 14 nM. Also, the half-life (usually the time in which the quantity being followed falls by half) in [8] is 5.08 h; in [9] it was 1.1 h.

Regarding `O=C(/C(=N/O)Nc1ccc(F)c(Br)c1)C1CCN(S(=O)(=O)NCc2ccccc2)CC1`, the IC50 was more than 100000 nM in series [1], 262 nM in series [2] and 24 nM in series [3].

Consider `O=C(/C(=N/O)Nc1ccc(F)c(Br)c1)[C@H]1CC[C@H](NS(=O)(=O)Nc2ccccc2)CC1`, for which the IC50 in series [1] is more than 100000 nM; in series [2] it was 291 nM; in series [3], 102 nM.

Regarding `O=C(/C(=N/O)Nc1ccc(F)c(Br)c1)c1cncs1`, the IC50 amounted to 11800 nM in series [1], 1770 nM in [2] and 51 nM in series [3].

Turning to `O=C(/C(=N/O)Nc1ccc(F)c(Br)c1)C1CCN(C(=O)Nc2ccccc2)CC1`, the IC50 in series [1] came to 58000 nM; in series [2] it was 54 nM; in [3] it was 40 nM.
